# Data reported in ChEMBL document CHEMBL1201862, “PubChem BioAssay data set” (2004).
# The source made the active and inactive calls.
# Key:
# [1] = T. cruzi intracellular amastigote growth inhibition, dose response, imaging, CA-I/72 strain, bovine embryo skeletal muscle, dry powder (AID 651885); assay type: functional, cell-based
# [2] = T. cruzi growth inhibition in host cells, dose response, cell-based, plate reader, dry powder, set 2 (AID 652275); assay type: functional
# [3] = growth inhibition of intracellular T. cruzi, dose response, cell-based, plate reader, dry powder samples (AID 651845); assay type: functional
# [4] = A549 cell cytotoxicity, dose response, cytotoxicity control, 24 h, CellTiter-Glo luminescence, cherry-picks (AID 1053115); assay type: functional, cell-based; details: A549, 24 h
# [5] = inhibitors of fibronectin matrix deposition, dose response, AH1F cells, Alexa488-FN fluorescence, cherry-picks (AID 1035475); assay type: functional, cell-based
# [6] = HEK293 cell cytotoxicity, dose response, cytotoxicity control, cherry-picks, set 5 (AID 1053117); assay type: functional, cell-based
# [7] = HepG2 cell cytotoxicity, dose response, cytotoxicity control, cherry-picks, set 5 (AID 1053118); assay type: functional, cell-based
# [8] = Concentration-dependent survival of SW480 colon cancer line, luminescence detection with CellTiter-Glo, half-maximal inhibitory concentration (AID 1117338); assay type: functional
# [9] = RKO cell viability reduction, dose response, CellTiter-Glo luminescence (AID 1117322); assay type: functional
# [10] = cytotoxicity toward Colo320 cells – cell-based, CellTiter-Glo luminescence, IC50, dose response (AID 1117334); assay type: functional; details: COLO 320
# [11] = HeLa 4N DNA content increase, dose response, cell-based, IC50 (AID 1117351); assay type: functional
# [12] = CellTiter-Glo luminescent dose response of DLD-1 viability loss (AID 1117352); assay type: functional
# [13] = HCT116 cell viability decrease, GSK3B pretreatment – CellTiter-Glo, IC50, dose response (AID 1117339); assay type: functional; details: HCT-116
# [14] = target: T1, Calpain-2 catalytic subunit (Sus scrofa, UniProt P43367); experiment: pig calpain II inhibitor potency, dose response, biochemical, fluorogenic peptide substrate (AID 1420); assay type: functional
# T1 sequence (P43367 whole entry): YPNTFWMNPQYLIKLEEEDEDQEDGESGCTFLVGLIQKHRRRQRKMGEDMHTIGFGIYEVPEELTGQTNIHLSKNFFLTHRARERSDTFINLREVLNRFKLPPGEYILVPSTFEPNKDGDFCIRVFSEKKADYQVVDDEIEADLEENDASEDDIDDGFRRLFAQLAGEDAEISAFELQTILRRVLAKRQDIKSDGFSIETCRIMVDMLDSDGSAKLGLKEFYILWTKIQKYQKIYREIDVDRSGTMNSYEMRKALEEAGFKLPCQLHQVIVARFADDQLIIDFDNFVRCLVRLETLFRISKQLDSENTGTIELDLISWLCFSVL
# [15] = target: Sphingosine 1-phosphate receptor 2 (Homo sapiens, UniProt O95136); experiment: Dose Response Cell Based Assay for Antagonists of the S1P2 Receptor. [Related pubchem assays: 856, 736 ]; assay type: functional
# Sequence of Sphingosine 1-phosphate receptor 2 (O95136 whole entry, the tested form may be a part): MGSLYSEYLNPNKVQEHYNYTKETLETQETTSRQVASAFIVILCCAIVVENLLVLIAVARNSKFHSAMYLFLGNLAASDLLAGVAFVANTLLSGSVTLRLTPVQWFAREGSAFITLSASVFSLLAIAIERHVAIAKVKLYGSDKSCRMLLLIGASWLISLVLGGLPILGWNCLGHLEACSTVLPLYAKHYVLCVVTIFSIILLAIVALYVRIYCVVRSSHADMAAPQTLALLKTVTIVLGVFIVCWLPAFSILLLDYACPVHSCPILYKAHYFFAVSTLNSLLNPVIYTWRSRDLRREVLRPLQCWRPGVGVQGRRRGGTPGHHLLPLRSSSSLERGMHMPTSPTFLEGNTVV
# [16] = target: T2, Oxysterols receptor LXR-beta (Homo sapiens, UniProt P55055); experiment: LXR agonists, Gal4 luciferase reporter, dose response, counter-screen for ssDAF-12 agonist project, cell-based, luminescence, HEK293, S. stercoralis campaign (AID 720737); assay type: functional; details: read-out: IC50 (the source's name)
# T2 sequence (P55055 whole entry): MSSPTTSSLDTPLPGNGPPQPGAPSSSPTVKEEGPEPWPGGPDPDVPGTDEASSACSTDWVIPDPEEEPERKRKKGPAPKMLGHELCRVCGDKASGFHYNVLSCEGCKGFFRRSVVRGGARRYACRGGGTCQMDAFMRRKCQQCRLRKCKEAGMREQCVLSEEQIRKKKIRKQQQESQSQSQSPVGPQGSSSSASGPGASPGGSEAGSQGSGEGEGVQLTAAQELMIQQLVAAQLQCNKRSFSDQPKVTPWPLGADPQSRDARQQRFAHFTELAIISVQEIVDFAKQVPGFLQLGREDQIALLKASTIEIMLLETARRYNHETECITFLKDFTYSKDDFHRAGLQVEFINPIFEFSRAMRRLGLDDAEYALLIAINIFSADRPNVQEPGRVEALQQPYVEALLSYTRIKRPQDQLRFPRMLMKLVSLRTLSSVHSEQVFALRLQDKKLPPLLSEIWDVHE
# [17] = Luminescence-based cell-based high throughput dose response assay to identify activators of the DAF-12 from the parasite S. stercoralis (ssDAF-12).; assay type: functional
# Fibrinogen beta chain [18] = target: T3, Fibrinogen beta chain (Homo sapiens, UniProt P02675); experiment: Fluorescence polarization-based biochemical high throughput dose response assay to identify inhibitors that disrupt the binding of a cyclic peptide (Tn6) to the fibrin proteolytic product D-Dimer and fragment E complex [DD(E )].
# T3 sequence (P02675 whole entry, the tested form may be a part): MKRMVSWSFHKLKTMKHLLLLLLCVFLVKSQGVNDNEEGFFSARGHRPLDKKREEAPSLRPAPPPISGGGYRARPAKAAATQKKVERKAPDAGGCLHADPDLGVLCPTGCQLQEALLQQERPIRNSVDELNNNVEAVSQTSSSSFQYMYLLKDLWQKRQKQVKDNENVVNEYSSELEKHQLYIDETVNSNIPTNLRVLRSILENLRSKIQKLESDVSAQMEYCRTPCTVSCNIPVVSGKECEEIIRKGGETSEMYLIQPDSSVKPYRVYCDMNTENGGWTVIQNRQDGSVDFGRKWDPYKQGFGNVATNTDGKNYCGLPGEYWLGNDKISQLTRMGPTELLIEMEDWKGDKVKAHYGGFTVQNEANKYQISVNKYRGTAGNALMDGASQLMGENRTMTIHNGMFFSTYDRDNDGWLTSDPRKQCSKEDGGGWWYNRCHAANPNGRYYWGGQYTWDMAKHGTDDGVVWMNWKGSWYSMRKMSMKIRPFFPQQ
# Fibrinogen beta chain [19] = target: T3, Fibrinogen beta chain; experiment: Fluorescence polarization-based biochemical high throughput dose response assay to identify inhibitors that disrupt the binding of a cyclic peptide (Tn7) to the fibrin proteolytic product D-Dimer and fragment E complex [DD(E )].
# [20] = target: G-protein coupled receptor 183 (Homo sapiens, UniProt P32249); experiment: SAR confirmation of small molecule antagonists of the EBI2 receptor via a luminescent beta-arrestin assa.; assay type: functional
# Sequence of G-protein coupled receptor 183 (P32249 whole entry): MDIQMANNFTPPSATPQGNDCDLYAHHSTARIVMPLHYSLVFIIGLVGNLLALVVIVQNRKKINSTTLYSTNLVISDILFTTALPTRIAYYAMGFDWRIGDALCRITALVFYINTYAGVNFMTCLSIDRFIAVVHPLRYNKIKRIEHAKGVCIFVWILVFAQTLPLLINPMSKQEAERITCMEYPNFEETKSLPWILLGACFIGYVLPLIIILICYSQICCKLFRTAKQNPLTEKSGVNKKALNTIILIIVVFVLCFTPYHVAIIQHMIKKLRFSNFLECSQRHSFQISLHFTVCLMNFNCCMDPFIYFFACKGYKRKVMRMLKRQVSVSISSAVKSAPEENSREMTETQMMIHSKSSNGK
# [21] = cytotoxicity toward HCT116 cells – cell-based, CellTiter-Glo luminescence, IC50, dose response (AID 1117332); assay type: functional; details: HCT-116
# [22] = cytotoxicity toward HT-29 cells – cell-based, CellTiter-Glo luminescence, IC50, dose response (AID 1117330); assay type: functional
# [23] = SNU-C1 cell viability reduction, dose response, CellTiter-Glo luminescence (AID 1117323); assay type: functional, cell-based
# [24] = Late-stage results from the probe development effort to identify antagonists of arginine vasopressin receptor 1a (AVPR1a): fluorescence-based cell-based dose response AVPR1a inhibition assay.; assay type: functional
# Vasopressin V2 receptor = Vasopressin V2 receptor (Homo sapiens, UniProt P30518); experiment: Late-stage results from the probe development effort to identify antagonists of arginine vasopressin receptor 1a (AVPR1a): fluorescence-based cell-based dose response AVPR2 inhibition counterscreen assay.; assay type: functional
# Sequence of Vasopressin V2 receptor (P30518 whole entry): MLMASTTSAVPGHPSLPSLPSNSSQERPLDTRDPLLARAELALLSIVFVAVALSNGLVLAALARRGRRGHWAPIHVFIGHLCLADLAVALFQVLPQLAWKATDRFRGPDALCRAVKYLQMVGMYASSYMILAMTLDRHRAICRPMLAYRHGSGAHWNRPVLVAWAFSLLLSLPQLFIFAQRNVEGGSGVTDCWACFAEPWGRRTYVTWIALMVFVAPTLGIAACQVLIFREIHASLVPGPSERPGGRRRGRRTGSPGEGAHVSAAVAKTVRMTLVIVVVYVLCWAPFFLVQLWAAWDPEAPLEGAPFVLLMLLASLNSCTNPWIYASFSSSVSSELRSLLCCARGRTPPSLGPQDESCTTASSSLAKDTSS
# [25] = Late-stage results from the probe development effort to identify antagonists of arginine vasopressin receptor 1a (AVPR1a): fluorescence-based cell-based dose response OXTR inhibition counterscreen assay.; assay type: functional
# Vasopressin V1b receptor = Vasopressin V1b receptor (Homo sapiens, UniProt P47901); experiment: Late-stage results from the probe development effort to identify antagonists of arginine vasopressin receptor 1a (AVPR1a): fluorescence-based cell-based dose response AVPR1b inhibition counterscreen assay.; assay type: functional
# Sequence of Vasopressin V1b receptor (P47901 whole entry): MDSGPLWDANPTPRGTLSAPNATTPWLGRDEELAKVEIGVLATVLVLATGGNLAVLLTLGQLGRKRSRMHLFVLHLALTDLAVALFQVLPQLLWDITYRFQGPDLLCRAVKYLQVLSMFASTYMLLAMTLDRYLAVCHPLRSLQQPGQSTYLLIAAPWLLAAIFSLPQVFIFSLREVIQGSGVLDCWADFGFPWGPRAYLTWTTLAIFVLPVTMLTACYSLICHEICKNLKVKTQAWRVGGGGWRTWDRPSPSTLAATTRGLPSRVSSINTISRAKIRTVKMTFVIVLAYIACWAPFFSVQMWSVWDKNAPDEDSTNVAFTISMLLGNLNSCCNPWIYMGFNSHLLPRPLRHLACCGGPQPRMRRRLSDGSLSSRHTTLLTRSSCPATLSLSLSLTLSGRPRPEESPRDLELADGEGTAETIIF
# [26] = inhibitors of intracellular T. cruzi replication, confirmation, NIH3T3 host cells, beta-gal luminescence (AID 2044); assay type: functional, cell-based;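 note: intracellular parasites grown in NIH/3T3 mouse fibroblasts as host cells; luminescent beta-galactosidase reporter signal from transgenic T. cruzi replicating inside host cells; inhibitors lower the luminescence signal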
# [27] = THP-1 cell cytotoxicity, dose response, cytotoxicity control for Vif-APOBEC3G degradation inhibitor project, THP-1 cells (AID 1117359); assay type: functional; details: Human immunodeficiency virus 1, THP-1
# Beta-galactosidase = Beta-galactosidase (Escherichia coli, UniProt Q8VNN2); experiment: Dose response counterscreen for EBI2 assay utilizing the enzyme, b-galactosidase.; assay type: functional
# Sequence of Beta-galactosidase (Q8VNN2 whole entry): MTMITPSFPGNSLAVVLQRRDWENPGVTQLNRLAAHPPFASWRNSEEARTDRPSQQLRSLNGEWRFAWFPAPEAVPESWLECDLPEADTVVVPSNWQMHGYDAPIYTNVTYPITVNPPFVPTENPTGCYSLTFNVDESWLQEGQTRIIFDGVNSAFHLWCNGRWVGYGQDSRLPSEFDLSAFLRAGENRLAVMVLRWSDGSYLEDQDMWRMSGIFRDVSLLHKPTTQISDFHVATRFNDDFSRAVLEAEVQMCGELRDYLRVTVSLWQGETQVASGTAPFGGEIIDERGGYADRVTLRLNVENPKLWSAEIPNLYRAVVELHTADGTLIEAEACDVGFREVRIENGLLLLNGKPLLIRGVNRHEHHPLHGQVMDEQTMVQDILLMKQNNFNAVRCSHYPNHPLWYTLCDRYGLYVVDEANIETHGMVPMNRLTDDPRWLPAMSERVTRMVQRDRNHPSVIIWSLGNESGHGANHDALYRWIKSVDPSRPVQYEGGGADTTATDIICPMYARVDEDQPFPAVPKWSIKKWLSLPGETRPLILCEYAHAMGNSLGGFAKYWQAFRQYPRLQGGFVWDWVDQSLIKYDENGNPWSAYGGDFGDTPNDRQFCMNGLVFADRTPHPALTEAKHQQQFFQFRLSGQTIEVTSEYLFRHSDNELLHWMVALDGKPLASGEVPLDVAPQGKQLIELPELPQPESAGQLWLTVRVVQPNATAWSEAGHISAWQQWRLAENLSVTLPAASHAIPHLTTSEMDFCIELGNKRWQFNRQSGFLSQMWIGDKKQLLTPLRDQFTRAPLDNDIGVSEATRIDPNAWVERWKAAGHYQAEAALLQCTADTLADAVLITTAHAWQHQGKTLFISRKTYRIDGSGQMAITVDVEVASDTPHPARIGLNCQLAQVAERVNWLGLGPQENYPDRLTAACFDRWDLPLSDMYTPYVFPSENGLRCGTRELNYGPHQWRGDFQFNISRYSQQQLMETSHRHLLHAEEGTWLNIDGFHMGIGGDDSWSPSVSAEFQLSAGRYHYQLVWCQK
# [28] = inhibitors of Vif binding to APOBEC3G peptide, primary screen, biochemical, TR-FRET, GST-Vif 1-94, biotin-A3G peptide, dose response retest (AID 1117319); assay type: functional;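 note: TR-FRET signal of purified GST-Vif binding a biotinylated A3G peptide; inhibitors lower the FRET signal by blocking Vif and A3G binding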
# [29] = cytotoxicity in MIN6 insulinoma cells, dose response, cytotoxicity control, cell-based, mouse insulinoma (AID 2122); assay type: functional;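 note: confirmatory high-throughput counterscreen run to flag cytotoxic compounds; mouse MIN-6 beta cells carrying an insulin promoter eGFP reporter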
# [30] = cytotoxicity toward NIH3T3 fibroblasts, dose response, counter-screen, cell-based, ATP luminescence, mouse fibroblasts (AID 2010); assay type: functional;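 note: cells exposed to compound for about 90 hours before reading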
# [31] = insulin promoter down-regulators in MIN6 cells, imaging, high-content screening, mouse beta cells (AID 1628); assay type: functional
# [32] = Vero cell cytotoxicity, dose response, cytotoxicity control for Vif-APOBEC3G degradation inhibitor project, Vero cells (AID 1117358); assay type: functional; details: Human immunodeficiency virus 1, Vero
# [33] = target: T4, Rac GTPase-activating protein 1 (Homo sapiens, UniProt Q9H0H5); experiment: MgcRacGAP GTPase-activating activity inhibitors, confirmation, biochemical, ADP Hunter fluorescence, primary and confirmatory (AID 624330); assay type: functional
# T4 sequence (Q9H0H5 whole entry): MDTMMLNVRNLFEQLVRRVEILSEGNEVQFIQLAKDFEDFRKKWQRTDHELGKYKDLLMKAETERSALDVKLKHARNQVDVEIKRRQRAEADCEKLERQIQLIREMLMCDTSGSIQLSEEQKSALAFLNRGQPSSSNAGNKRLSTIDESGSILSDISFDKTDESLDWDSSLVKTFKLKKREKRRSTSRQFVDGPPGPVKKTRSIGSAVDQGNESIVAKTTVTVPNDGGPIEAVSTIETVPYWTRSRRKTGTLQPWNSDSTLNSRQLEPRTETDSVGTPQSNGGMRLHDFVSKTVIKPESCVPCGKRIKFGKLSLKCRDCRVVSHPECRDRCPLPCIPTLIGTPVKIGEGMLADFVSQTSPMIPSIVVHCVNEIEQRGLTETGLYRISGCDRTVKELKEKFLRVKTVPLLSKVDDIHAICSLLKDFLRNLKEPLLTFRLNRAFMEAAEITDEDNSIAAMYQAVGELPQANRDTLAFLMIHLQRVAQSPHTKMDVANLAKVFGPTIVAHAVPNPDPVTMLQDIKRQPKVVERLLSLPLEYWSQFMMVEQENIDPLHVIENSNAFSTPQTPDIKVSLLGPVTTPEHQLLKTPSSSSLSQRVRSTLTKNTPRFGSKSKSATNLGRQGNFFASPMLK
# [34] = target: T2, Oxysterols receptor LXR-beta; assay type: functional, cell-based
# [35] = target: Dual specificity tyrosine-phosphorylation-regulated kinase 1A (Rattus norvegicus, UniProt Q63470); assay type: biochemical, Homo sapiens
# [36] = target: Diphosphomevalonate decarboxylase (Streptococcus pneumoniae serotype 2 (strain D39 / NCTC 7466), UniProt Q9FD53); experiment: S. pneumoniae DPM-DC inhibition retest, confirmation, biochemical, cuvette format, coupled NADH fluorescence (AID 1028); assay type: functional
# Sequence of Diphosphomevalonate decarboxylase (Q9FD53 whole entry): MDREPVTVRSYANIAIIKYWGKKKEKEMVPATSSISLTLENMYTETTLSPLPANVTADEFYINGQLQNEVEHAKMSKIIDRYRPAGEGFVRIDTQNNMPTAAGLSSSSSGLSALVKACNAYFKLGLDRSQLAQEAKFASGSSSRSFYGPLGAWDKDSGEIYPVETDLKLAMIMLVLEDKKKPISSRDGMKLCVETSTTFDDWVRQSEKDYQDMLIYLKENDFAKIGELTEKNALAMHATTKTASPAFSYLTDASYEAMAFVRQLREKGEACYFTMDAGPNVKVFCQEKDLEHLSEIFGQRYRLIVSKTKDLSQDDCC
# [37] = cytotoxicity in HEK293 cells, dose response, cytotoxicity control, cell-based, cherry-picked samples (AID 1053185); assay type: functional
# [38] = cytotoxicity in A549 cells, dose response, cytotoxicity control, cell-based, cherry-picked samples (AID 1053184); assay type: functional
# [39] = P. falciparum Dd2 growth inhibitors, dose response, SYBR Green, cherry-picked samples (AID 1159567); assay type: functional, cell-based
# [40] = HepG2 cell cytotoxicity, dose response, cytotoxicity control, cherry-picked samples (AID 1159577); assay type: functional, cell-based
# [41] = cytotoxicity in HepG2 cells, dose response, cytotoxicity control, cell-based, cherry-picked samples (AID 1053183); assay type: functional
smiles,measurement,setting,value
CC(C)N1C[C@H](C)[C@@H](CN(C)Cc2ccc(Oc3ccccc3)cc2)Oc2c(NC(=O)c3ccncc3)cccc2C1=O,IC50,[1],0.00163 µM (active)
same,AC50,[2],0.00111 µM (active)
same,AC50,[3],0.00119 µM (active)
OC[C@@H]1Nc2ccc(-c3cccc(F)c3)cc2[C@H]2[C@@H]1CCN2Cc1ccc(F)cc1,AC50,[4],51.5 µM (active)
CO[C@H]1CN(C)C(=O)c2ccc(NC(=O)Nc3ccc(Cl)c(Cl)c3)cc2OC[C@H](C)NC[C@@H]1C,AC50,[5],53.6 µM (active)
same,AC50,[6],18.4 µM (active)
same,AC50,[7],11.2 µM (active)
COc1cccc2c1C(=O)c1c(O)c3c(c(O)c1C2=O)C[C@@](O)(C(=O)CO)CC3OC1CC(N2CCOC(OC)C2)C(O)C(C)O1 (stereo not given in full),IC50,[8],0.001 µM (active)
same,IC50,[9],0.001 µM (active)
same,IC50,[10],0.001 µM (active)
same,IC50,[11],> 10 µM (inactive)
same,IC50,[12],0.001 µM (active)
same,IC50,[13],0.001 µM (active)
COC(=O)c1sc2cc(C(F)(F)F)cnc2c1-c1cccnc1,IC50,[14],14.3 µM (not active)
same,IC50,[15],> 30 µM (not active)
Oc1ccc(N=Nc2ccccc2)o1,EC50,[16],> 67.6 µM (inactive)
same,IC50,[17],> 67.6 µM (inactive)
CCOC(=O)N1CCN(Cc2nc(-c3ccc(C)cc3)no2)CC1,IC50,Fibrinogen beta chain [18],> 83.3 µM (inactive)
same,IC50,Fibrinogen beta chain [19],> 27.8 µM (inactive)
CCOc1ccc(/C=C/C(=O)N2CCN(S(=O)(=O)c3ccc(Br)cc3)CC2)cc1,IC50,[20],0.0143 µM (active)
CC(CC=O)CCCC(C)(C)O (stereo not given),IC50,[8],> 20 µM (inactive)
same,IC50,[9],> 20 µM (inactive)
same,IC50,[10],> 20 µM (inactive)
same,IC50,[12],> 20 µM (inactive)
same,IC50,[13],> 20 µM (inactive)
same,IC50,[21],> 20 µM (inactive)
same,IC50,[22],> 20 µM (inactive)
same,IC50,[23],> 20 µM (inactive)
O=C(C1CCN(c2ncccc2F)CC1)N(CC1CC1)c1ccc(Cl)cc1,IC50,[24],0.015 µM (active)
same,IC50,Vasopressin V2 receptor,19 µM (inactive)
same,IC50,[25],3.6 µM (active)
same,IC50,Vasopressin V1b receptor,11.5 µM (inactive)
Cc1cccc(S(=O)(=O)c2c(N)n(/N=C/c3ccco3)c3nc4ccccc4nc23)c1,EC50,[26],2.12 µM (active)
same,CC50,[27],> 40 µM (active)
same,IC50,Beta-galactosidase,> 80 µM (inactive)
same,IC50,[28],> 55.3 µM (active)
same,IC50,[29],9.21 µM (active)
same,EC50,[30],12 µM (active)
same,IC50,[31],6.02 µM (active)
same,CC50,[32],> 40 µM (active)
CSc1nc(/C=C2\C=Nc3ccccc32)c(O)[nH]1,EC50,cells,> 67.6 µM (inactive)
same,IC50,[33],35.9 µM (active)
same,EC50,[34],> 67.6 µM (inactive)
same,AC50,[35],7.28 µM (active)
CCN(CC)C(=O)c1ccc(-n2sc3ccccc3c2=O)cc1,IC50,[36],19.2 µM (active)
C/C=C/c1ccc([C@@H]2[C@@H]3CN(C(=O)Nc4ccc(C(F)(F)F)cc4)C[C@H]2N3)cc1,AC50,[37],16.6 µM (active)
same,AC50,[38],18.1 µM (active)
same,AC50,[39],6.85 µM (active)
same,AC50,[40],10.3 µM (active)
same,AC50,[41],16.7 µM (active)
